Data from ChEMBL document CHEMBL1781912, “In search of patterns over physicochemical properties and pharmacological activities for a set of [MCl₂(thiosemicarbazone)] complexes (M=Pt/Pd): support for multiple mechanisms of antichagasic action excluding DNA-bonding in vivo?” (Eur J Med Chem, 2011).

Tested on: Trypanosoma cruzi
Assay: Antichagasic activity against Trypanosoma cruzi Tulahuen 2
Assay type: functional, organism-based

Row | IC50 [µM] | Compound
1 | 3.6 | O=[N+]([O-])c1ccc(/C=C/C=N/NC(=S)Nc2ccccc2)o1
2 | 2.7 | NC(=S)N/N=C/c1ccc([N+](=O)[O-])o1
3 | 3.5 | NC(=S)N/N=C\C=C\c1ccc([N+](=O)[O-])o1
4 | 4.5 | CNC(=S)N/N=C/C=C/c1ccc([N+](=O)[O-])o1
5 | 4.9 | CCNC(=S)N/N=C/c1ccc([N+](=O)[O-])o1
6 | 4.1 | CCNC(=S)N/N=C/C=C/c1ccc([N+](=O)[O-])o1
7 | 5 | CNC(=S)N/N=C/c1ccc([N+](=O)[O-])o1
8 | > 25 | O=[N+]([O-])c1ccc(/C=N/NC(=S)Nc2ccccc2)o1
9 | 6.1 | CC1CS(=O)(=O)CCN1/N=C/c1ccc([N+](=O)[O-])o1 (centres undefined) [NIFURTIMOX]
